{
  "source": "PubChem BioAssay AID248",
  "about": "(DTP/NCI, 2004)",
  "system": "L1210 leukemia ip in BDF1 mice, survival T/C",
  "test": "NCI In Vivo Anticancer Drug Screen. Data for tumor model L1210 Leukemia (intraperitoneal) in B6D2F1 (BDF1) mice",
  "settings": "endpoint: mean survival time, higher = longer survival",
  "method_in_brief": "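Mice bearing the transplanted tumor received compound or vehicle. Survival of the treated group was divided by that of the vehicle-treated control group to give the ratio.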",
  "key": {"[1]": {"settings": "dose: 100.0 mg/kg/injection, schedule: Q01DX001 (ip), vehicle: carboxymethylcellulose (CMC)"}, "[2]": {"settings": "dose: 200.0 mg/kg/injection, schedule: Q01DX001 (ip), vehicle: carboxymethylcellulose (CMC)"}, "[3]": {"settings": "dose: 400.0 mg/kg/injection, schedule: Q01DX001 (ip), vehicle: carboxymethylcellulose (CMC)"}, "[4]": {"settings": "dose: 50.0 mg/kg/injection, schedule: Q01DX009 (ip), vehicle: saline"}, "[5]": {"settings": "dose: 100.0 mg/kg/injection, schedule: Q01DX009 (ip), vehicle: saline"}, "[6]": {"settings": "dose: 100.0 mg/kg/injection, schedule: Q04DX003 (ip), vehicle: saline"}, "[7]": {"settings": "dose: 200.0 mg/kg/injection, schedule: Q01DX009 (ip), vehicle: saline"}, "[8]": {"settings": "dose: 200.0 mg/kg/injection, schedule: Q04DX003 (ip), vehicle: saline"}, "[9]": {"settings": "dose: 400.0 mg/kg/injection, schedule: Q04DX003 (ip), vehicle: saline"}},
  "note": "Inconclusive results and toxic doses are left out.",
  "data": [
    {"smiles": "COC(=O)C1(C)CCCC2(C)C1CCC13OCC(CC21)C1(C(C)C)OC31", "note": "(stereo not given)", "values": [
      {"measurement": "T/C", "setting": "dose: 100.0 mg/kg/injection, schedule: Q01DX009 (ip), vehicle: saline with Tween-80", "value": "96 % of control"},
      {"measurement": "T/C", "setting": "dose: 200.0 mg/kg/injection, schedule: Q01DX009 (ip), vehicle: saline with Tween-80", "value": "93 % of control"},
      {"measurement": "T/C", "setting": "dose: 400.0 mg/kg/injection, schedule: Q01DX009 (ip), vehicle: saline with Tween-80", "value": "95 % of control"}
    ]},
    {"smiles": "COC(=O)c1cccc(OC)c1", "values": [
      {"measurement": "T/C", "setting": "dose: 50.0 mg/kg/injection, schedule: Q01DX001 (ip), vehicle: carboxymethylcellulose (CMC)", "value": "102 % of control"},
      {"measurement": "T/C", "setting": "[1]", "value": "98 % of control"},
      {"measurement": "T/C", "setting": "[2]", "value": "104 % of control"},
      {"measurement": "T/C", "setting": "[3]", "value": "93 % of control"}
    ]},
    {"smiles": "S=C([S-])N(Cc1ccccc1)Cc1ccccc1.S=C([S-])N(Cc1ccccc1)Cc1ccccc1.[Zn]", "values": [
      {"measurement": "T/C", "setting": "[4]", "value": "104 % of control"},
      {"measurement": "T/C", "setting": "[5]", "value": "102 % of control"},
      {"measurement": "T/C", "setting": "[6]", "value": "94 % of control"},
      {"measurement": "T/C", "setting": "[7]", "value": "104 % of control"},
      {"measurement": "T/C", "setting": "[8]", "value": "97 % of control"},
      {"measurement": "T/C", "setting": "[9]", "value": "89 % of control"}
    ]},
    {"smiles": "CC#CCOCC1CNC(=O)O1", "note": "(stereo not given)", "values": [
      {"measurement": "T/C", "setting": "dose: 25.0 mg/kg/injection, schedule: Q01DX009 (ip), vehicle: saline", "value": "98 % of control"},
      {"measurement": "T/C", "setting": "dose: 25.0 mg/kg/injection, schedule: Q04DX003 (ip), vehicle: saline", "value": "105 % of control"},
      {"measurement": "T/C", "setting": "[4]", "value": "93 % of control"},
      {"measurement": "T/C", "setting": "dose: 50.0 mg/kg/injection, schedule: Q04DX003 (ip), vehicle: saline", "value": "97 % of control"},
      {"measurement": "T/C", "setting": "[5]", "value": "93 % of control"},
      {"measurement": "T/C", "setting": "[6]", "value": "97 % of control"},
      {"measurement": "T/C", "setting": "[7]", "value": "102 % of control"},
      {"measurement": "T/C", "setting": "[8]", "value": "103 % of control"},
      {"measurement": "T/C", "setting": "dose: 400.0 mg/kg/injection, schedule: Q01DX009 (ip), vehicle: saline", "value": "104 % of control"},
      {"measurement": "T/C", "setting": "[9]", "value": "103 % of control"}
    ]},
    {"smiles": "CN=C(NC)c1ccc(NC(=O)c2ccc(C(=O)Nc3ccc(C(=NC)NC)cc3)c(N)c2)cc1", "values": [
      {"measurement": "T/C", "setting": "dose: 0.28 mg/kg/injection, schedule: Q01DX Z (ip), vehicle: water", "value": "98 % of control"},
      {"measurement": "T/C", "setting": "dose: 0.56 mg/kg/injection, schedule: Q01DX Z (ip), vehicle: water", "value": "93 % of control"},
      {"measurement": "T/C", "setting": "dose: 1.12 mg/kg/injection, schedule: Q01DX Z (ip), vehicle: water", "value": "170 % of control"},
      {"measurement": "T/C", "setting": "dose: 2.25 mg/kg/injection, schedule: Q01DX Z (ip), vehicle: water", "value": "157 % of control"},
      {"measurement": "T/C", "setting": "dose: 4.5 mg/kg/injection, schedule: Q01DX Z (ip), vehicle: carboxymethylcellulose (CMC)", "value": "180 % of control"},
      {"measurement": "T/C", "setting": "dose: 9.0 mg/kg/injection, schedule: Q01DX Z (ip), vehicle: carboxymethylcellulose (CMC)", "value": "159 % of control"},
      {"measurement": "T/C", "setting": "dose: 36.0 mg/kg/injection, schedule: Q01DX Z (ip), vehicle: carboxymethylcellulose (CMC)", "value": "117 % of control"},
      {"measurement": "T/C", "setting": "dose: 50.0 mg/kg/injection, schedule: Q01DX Z (oral), vehicle: water", "value": "102 % of control"},
      {"measurement": "T/C", "setting": "dose: 100.0 mg/kg/injection, schedule: Q01DX Z (oral), vehicle: water", "value": "105 % of control"},
      {"measurement": "T/C", "setting": "dose: 200.0 mg/kg/injection, schedule: Q01DX Z (oral), vehicle: water", "value": "103 % of control"},
      {"measurement": "T/C", "setting": "dose: 400.0 mg/kg/injection, schedule: Q01DX Z (oral), vehicle: water", "value": "103 % of control"}
    ]},
    {"smiles": "Cc1ccc(N=Nc2ccc([N+](=O)[O-])cc2)c([N+](=O)[O-])c1", "values": [
      {"measurement": "T/C", "setting": "[1]", "value": "96 % of control"},
      {"measurement": "T/C", "setting": "[2]", "value": "93 % of control"},
      {"measurement": "T/C", "setting": "[3]", "value": "96 % of control"}
    ]},
    {"smiles": "CCCCC(=O)N/N=C/c1ccc(Cl)cc1", "values": [
      {"measurement": "T/C", "setting": "[1]", "value": "93 % of control"},
      {"measurement": "T/C", "setting": "[2]", "value": "107 % of control"},
      {"measurement": "T/C", "setting": "[3]", "value": "91 % of control"}
    ]},
    {"smiles": "COc1ccc(S(=O)(=O)F)cc1NC(=O)CCc1ccc(N2C(N)=NC(N)=NC2(C)C)cc1", "values": [
      {"measurement": "T/C", "setting": "dose: 100.0 mg/kg/injection, schedule: Q01DX001 (ip), vehicle: gum acacia", "value": "115 % of control"},
      {"measurement": "T/C", "setting": "dose: 200.0 mg/kg/injection, schedule: Q01DX001 (ip), vehicle: gum acacia", "value": "101 % of control"}
    ]},
    {"smiles": "Nc1nc(N)c2nc(CSc3ccccc3)cnc2n1", "values": [
      {"measurement": "T/C", "setting": "dose: 20.0 mg/kg/injection, schedule: Q01DX009 (ip), vehicle: saline with Tween-80", "value": "97 % of control"},
      {"measurement": "T/C", "setting": "dose: 40.0 mg/kg/injection, schedule: Q01DX009 (ip), vehicle: saline with Tween-80", "value": "97 % of control"},
      {"measurement": "T/C", "setting": "dose: 80.0 mg/kg/injection, schedule: Q01DX009 (ip), vehicle: saline with Tween-80", "value": "94 % of control"}
    ]}
  ]
}
